Results: patent US20140073634A1 (Institute For Applied Cancer Science/The University of …, priority 2012, published 2014)

Each compound was assayed on 293T-HRE-GFP-luc cells (assay: Cell-based reporter assay for IC50 determinations (HRE-luciferase, hypoxia)). Details: 6 h, 6 hrs hypoxia (1% O2), luminescence.
How it was run: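 IC50s come from four-parameter logistic fits of luminescence. Compounds in 1:3 DMSO series were added to 293T-HRE-GFP-luc cells, 30 min normoxia preceding 6 hrs at 1% O2, 37° C; HRE-luciferase signal was then measured with Steadylite Plus reagent.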

SMILES	IC50
Cc1cccc(Cn2cc(-c3nc(-c4ccc(OC(F)(F)F)cc4)no3)ccc2=O)c1 [Example 152, 1-[(3-methylphenyl)methyl]-5-{3-[4-(trifluoromethoxy)phenyl]-1,2,4-oxadiazo-5-yl}-1,2-dihydropyridin-2-one]	< 100 nM
N#CC1CCN(c2cc(Cn3cc(-c4nc(-c5ccc(OC(F)(F)F)cc5)no4)ccc3=O)ccn2)CC1 [Example 153, 1-{4-[(2-oxo-5-{3-[4-(trifluoromethoxy)phenyl]-1,2,4-oxadiazol-5-yl}-1,2-dihydropyridin-1-yl)methyl]pyridin-2-yl}piperidine-4-carbonitrile]	< 100 nM
CC1(C)CCN(c2cc(Cn3cc(-c4nc(-c5ccc(OC(F)(F)F)cc5)no4)ccc3=O)ccn2)CC1 [Example 154, 1-{[2-(4,4-dimethylpiperidin-1-yl)pyridin-4-yl]methyl}-5-{3-[4-(trifluoromethoxy)phenyl]-1,2,4-oxadiazol-5-yl}-1,2-dihydropyridin-2-one]	< 100 nM
COC(=O)Cc1cccc(Cn2cc(-c3nc(-c4ccc(OC(F)(F)F)cc4)no3)ccc2=O)c1 [Example 155, methyl 2-{3-[(2-oxo-5-{3-[4-(trifluoromethoxy)phenyl]-1,2,4-oxadiazol-5-yl}-1,2-dihydropyridin-1-yl)methyl]phenyl}acetate]	< 100 nM
CN1CCN(C(=O)Cc2cccc(Cn3cc(-c4nc(-c5ccc(OC(F)(F)F)cc5)no4)ccc3=O)c2)CC1 [Example 156, 1-({3-[2-(4-methylpiperazin-1-yl)-2-oxoethyl]phenyl}methyl)-5-{3-[4-(trifluoromethoxy)phenyl]-1,2,4-oxadiazol-5-yl}-1,2-dihydropyridin-2-one]	< 100 nM
CN(C)C(=O)Cc1cccc(Cn2cc(-c3nc(-c4ccc(OC(F)(F)F)cc4)no3)ccc2=O)c1 [Example 157, N,N-dimethyl-2-{3-[(2-oxo-5-{3-[4-(trifluoromethoxy)phenyl]-1,2,4-oxadiazol-5-yl}-1,2-dihydropyridin-1-yl)methyl]phenyl}acetamide]	< 100 nM
O=c1ccc(-c2nc(-c3ccc(OC(F)(F)F)cc3)no2)cn1Cc1ccnc(N2CCOCC2)c1 [Example 158, 1-{[2-(morpholin-4-yl)pyridin-4-yl]methyl}-5-{3-[4-(trifluoromethoxy)phenyl]-1,2,4-oxadiazol-5-yl}-1,2-dihydropyridin-2-one]	< 100 nM
O=c1ccc(-c2nc(-c3ccc(OC(F)(F)F)cc3)no2)cn1Cc1ccnc(N2CCCC2)c1 [Example 159, 1-{[2-(pyrrolidin-1-yl)pyridin-4-yl]methyl}-5-{3-[4-(trifluoromethoxy)phenyl]-1,2,4-oxadiazol-5-yl}-1,2-dihydropyridin-2-one]	< 100 nM
O=c1ccc(-c2nc(-c3ccc(OC(F)(F)F)cc3)no2)cn1Cc1cccc(N2CCCCC2)c1 [Example 160, 1-{[3-(piperidin-1-yl)phenyl]methyl}-5-{3-[4-(trifluoromethoxy)phenyl]-1,2,4-oxadiazol-5-yl}-1,2-dihydropyridin-2-one]	< 100 nM
CCS(=O)(=O)c1cccc(Cn2cc(-c3nc(-c4ccc(OC(F)(F)F)cc4)no3)ccc2=O)c1 [Example 161, 1-{[3-(ethanesulfonyl)phenyl]methyl}-5-{3-[4-(trifluoromethoxy)phenyl]-1,2,4-oxadiazol-5-yl}-1,2-dihydropyridin-2-one]	< 100 nM
COC(=O)C(C)(C)c1cccc(Cn2cc(-c3nc(-c4ccc(OC(F)(F)F)cc4)no3)ccc2=O)c1 [Example 162, methyl 2-methyl-2-{3-[(2-oxo-5-{3-[4-(trifluoromethoxy)phenyl]-1,2,4-oxadiazol-5-yl}-1,2-dihydropyridin-1-yl)methyl]phenyl}propanoate]	< 100 nM
O=c1ccc(-c2nc(-c3ccc(OC(F)(F)F)cc3)no2)cn1Cc1ccnc(N2CCC(O)CC2)c1 [Example 163, 1-{[2-(4-hydroxypiperidin-1-yl)pyridin-4-yl]methyl}-5-{3-[4-(trifluoromethoxy)phenyl]-1,2,4-oxadiazol-5-yl}-1,2-dihydropyridin-2-one]	< 100 nM
CCN(CC)S(=O)(=O)c1cccc(Cn2cc(-c3nc(-c4ccc(OC(F)(F)F)cc4)no3)ccc2=O)c1 [Example 164, N,N-diethyl-3-[(2-oxo-5-{3-[4-(trifluoromethoxy)phenyl]-1,2,4-oxadiazol-5-yl}-1,2-dihydropyridin-1-yl)methyl]benzene-1-sulfonamide]	< 100 nM
CNS(=O)(=O)c1cccc(Cn2cc(-c3nc(-c4ccc(OC(F)(F)F)cc4)no3)ccc2=O)c1 [Example 165, N-methyl-3-[(2-oxo-5-{3-[4-(trifluoromethoxy)phenyl]-1,2,4-oxadiazol-5-yl}-1,2-dihydropyridin-1-yl)methyl]benzene-1-sulfonamide]	< 100 nM
O=c1ccc(-c2nc(-c3ccc(OC(F)(F)F)cc3)no2)cn1Cc1cccc(OC2COC2)c1 [Example 166, 1-{[3-(oxetan-3-yloxy)phenyl]methyl}-5-{3-[4-(trifluoromethoxy)phenyl]-1,2,4-oxadiazol-5-yl}-1,2-dihydropyridin-2-one]	< 100 nM
O=C1CN(c2cccc(Cn3cc(-c4nc(-c5ccc(OC(F)(F)F)cc5)no4)ccc3=O)c2)CCN1 [Example 167, 4-{3-[(2-oxo-5-{3-[4-(trifluoromethoxy)phenyl]-1,2,4-oxadiazol-5-yl}-1,2-dihydropyridin-1-yl)methyl]phenyl}piperazin-2-one]	< 100 nM
O=c1ccc(-c2nc(-c3ccc(OC(F)(F)F)cc3)no2)cn1Cc1cccc(N2CCCS2(=O)=O)c1 [Example 168, 1-(3-(1,1-dioxidoisothiazolidin-2-yl)benzyl)-5-(3-(4-(trifluoromethoxy)phenyl)-1,2,4-oxadiazol-5-yl)pyridin-2(1H)-one]	< 100 nM
CN1CCN(c2cccc(Cn3cc(-c4nc(-c5ccc(OC(F)(F)F)cc5)no4)ccc3=O)c2)CC1=O [Example 169, 1-methyl-4-{3-[(2-oxo-5-{3-[4-(trifluoromethoxy)phenyl]-1,2,4-oxadiazol-5-yl}-1,2-dihydropyridin-1-yl)methyl]phenyl}piperazin-2-one]	< 100 nM
CS(=O)(=O)CCCOc1cccc(Cn2cc(-c3nc(-c4ccc(OC(F)(F)F)cc4)no3)ccc2=O)c1 [Example 170, 1-{[3-(3-methanesulfonylpropoxy)phenyl]methyl}-5-{3-[4-(trifluoromethoxy)phenyl]-1,2,4-oxadiazol-5-yl}-1,2-dihydropyridin-2-one]	100 to 1000 nM
O=c1ccc(-c2nc(-c3ccc(OC(F)(F)F)cc3)no2)cn1Cc1cccc(CBr)c1 [Example 171, 1-{[3-(bromomethyl)phenyl]methyl}-5-{3-[4-(trifluoromethoxy)phenyl]-1,2,4-oxadiazol-5-yl}-1,2-dihydropyridin-2-one]	< 100 nM
COC(=O)/C=C/c1cccc(Cn2cc(-c3nc(-c4ccc(OC(F)(F)F)cc4)no3)ccc2=O)c1 [Example 172, methyl (2E)-3-{3-[(2-oxo-5-{3-[4-(trifluoromethoxy)phenyl]-1,2,4-oxadiazol-5-yl}-1,2-dihydropyridin-1-yl)methyl]phenyl}prop-2-enoate]	< 100 nM
CS(=O)(=O)C1CCN(c2cccc(Cn3nc(-c4nc(-c5ccc(OC(F)(F)F)cc5)no4)ccc3=O)c2)CC1 [Example 173, 2-{[3-(4-methanesulfonylpiperidin-1-yl)phenyl]methyl}-6-{3-[4-(trifluoromethoxy)phenyl]-1,2,4-oxadiazol-5-yl}-2,3-dihydropyridazin-3-one]	< 100 nM
O=c1ccc(-c2nc(-c3ccc(OC(F)(F)F)cc3)no2)nn1Cc1cccc(O)c1 [Example 174, 2-[(3-hydroxyphenyl)methyl]-6-{3-[4-(trifluoromethoxy)phenyl]-1,2,4-oxadiazol-5-yl}-2,3-dihydropyridazin-3-one]	100 to 1000 nM
CS(=O)(=O)C1CCN(c2cc(Cn3cc(-c4nc(-c5ccc(OC(F)(F)F)cc5)no4)ccc3=O)ccn2)CC1 [Example 175, 1-{[2-(4-methanesulfonylpiperidin-1-yl)pyridin-4-yl]methyl}-5-{3-[4-(trifluoromethoxy)phenyl]-1,2,4-oxadiazol-5-yl}-1,2-dihydropyridin-2-one]	< 100 nM
CN1CCN(c2cc(Cn3cc(-c4nc(-c5ccc(OC(F)(F)F)cc5)no4)ccc3=O)ccn2)CC1=O [Example 176, 1-methyl-4-{4-[(2-oxo-5-{3-[4-(trifluoromethoxy)phenyl]-1,2,4-oxadiazol-5-yl}-1,2-dihydropyridin-1-yl)methyl]pyridin-2-yl}piperazin-2-one]	< 100 nM
COCCOc1cccc(Cn2nc(-c3nc(-c4ccc(OC(F)(F)F)cc4)no3)ccc2=O)c1 [Example 177, 2-{[3-(2-methoxyethoxy)phenyl]methyl}-6-{3-[4-(trifluoromethoxy)phenyl]-1,2,4-oxadiazol-5-yl}-2,3-dihydropyridazin-3-one]	< 100 nM
O=c1ccc(-c2nc(-c3ccc(OC(F)(F)F)cc3)no2)nn1Cc1cccc(OCCO)c1 [Example 179, 2-{[3-(2-hydroxyethoxy)phenyl]methyl}-6-{3-[4-(trifluoromethoxy)phenyl]-1,2,4-oxadiazol-5-yl}-2,3-dihydropyridazin-3-one]	< 100 nM
C#CCCCC(=O)N1CCN(c2cccc(Cn3cc(-c4nc(-c5ccc(OC(F)(F)F)cc5)no4)ccc3=O)c2)CC1 [Example 180]	< 100 nM
CC(=O)N1CCN(c2cccc(Cn3cc(-c4nc(-c5ccc(OC(F)(F)F)cc5)no4)ccc3=O)c2)CC1 [Example 182]	< 100 nM
CCOC(=O)CN1CCN(c2cccc(Cn3cc(-c4nc(-c5ccc(OC(F)(F)F)cc5)no4)ccc3=O)c2)CC1=O [Example 183, ethyl 2-(2-oxo-4-{3-[(2-oxo-5-{3-[4-(trifluoromethoxy)phenyl]-1,2,4-oxadiazol-5-yl}-1,2-dihydropyridin-1-yl)methyl]phenyl}piperazin-1-yl)acetate]	< 100 nM

Same assay, conditions: 6 hrs hypoxia (1% O2), luminescence

SMILES	IC50
CC(C)(C)[Si](C)(C)OCCOc1cccc(Cn2nc(-c3nc(-c4ccc(OC(F)(F)F)cc4)no3)ccc2=O)c1 [Example 178, 2-[(3-{2-[(tert-butyldimethylsilyl)oxy]ethoxy}phenyl)methyl]-6-{3-[4-(trifluoromethoxy)phenyl]-1,2,4-oxadiazol-5-yl}-2,3-dihydropyridazin-3-one]	100 to 1000 nM
